The source of these data is the supplement of paper PMC11208160.

The nature of this data set: recombinant barcode read abundance after kanamycin selection (control-corrected) (log10(CPM+1)); higher = more efficient recombination; sequences stand for … in AGTGCAGAGAAAATCGGCCAGTTTTCTCTGCCTGCAGTCCGCATGCCGT…AGATTTATGCAGCGGACTGCCTTTCTCCCAAAGTGATAAACCGGACAGTATCATGGACCGGTTTTCCCGGTAATCCGTATTTGCAAGGTTGGTTTCACT; site = the 11-nt target. The method in brief: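 Recombination efficiency was calculated from barcode counts at recombinant junctions, normalized to counts per million, averaged and corrected by the control. Each value is given as log10(CPM+1). The constructs were Gibson-cloned oligos (promoter, target, barcode, J23119-driven first 104 bridge RNA bases) in a vector with the remaining 73 bp and a T7-inducible recombinase, co-electroporated into E. coli with a donor plasmid and plated in duplicate on chloramphenicol/ampicillin LB agar (control) or chloramphenicol/ampicillin/kanamycin with 0.1 mM IPTG.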
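Also: IS621 recombinase and bridge RNA in Escherichia coli cells.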

Turning to “GAACCTTCTTGGGTTCTAACCTGTTGCGG (site GAACCTTCTCC)”, the “recombinant barcode read abundance (log10)” value is 0.93. In the case of “GAACCTTCTTGGGTTCTAACCTGTTGCGG (site TTCTACACTAT)”, the “recombinant barcode read abundance (log10)” value amounted to 0.0281. To “GAACGACCTTGGGTTCTAACCTGTTGCCT (site AAACGACCTAG)” belongs 0.331; to “GAACGACCTTGGGTTCTAACCTGTTGCCT (site CAACGACCTAG)”, 0.0122. With “GAACGACCTTGGGTTCTAACCTGTTGCCT (site GAACGACCTAG)”, the “recombinant barcode read abundance (log10)” value worked out at 0.721. The figure for “GAACGACCTTGGGTTCTAACCTGTTGCCT (site TAACGACCTAG)” is 0.144. To “GAACTCCCTTGGGTTCTAACCTGTTGCGG (site GAACTCCCTCC)” belongs 0.758; to “GAACTCCCTTGGGTTCTAACCTGTTGCGG (site TGTTGGTCTAA)”, 0.0984. As to “GAACTCTCTTGGGTTCTAACCTGTTGCTA (site CCTAAAACTAG)”, the “recombinant barcode read abundance (log10)” value was 0.0469. “GAACTCTCTTGGGTTCTAACCTGTTGCTA (site GAACTCTCTTA)”: the “recombinant barcode read abundance (log10)” value stood at 1.66.

Regarding “GAACTGTCTTGGGTTCTAACCTGTTGCCA (site GAACTGTCTTG)”, the “recombinant barcode read abundance (log10)” value came out at 0.995. Regarding “GAACTGTCTTGGGTTCTAACCTGTTGCCA (site GTACTCTCTTG)”, the “recombinant barcode read abundance (log10)” value came out at 0.0913. To “GAAGAGCCTTGGGTTCTAACCTGTTGCCT (site GAAGAGCCTAG)” belongs 2.62. To “GAAGAGCCTTGGGTTCTAACCTGTTGCCT (site GAAGCGCCTAG)” belongs 0.189; to “GAAGAGCCTTGGGTTCTAACCTGTTGCCT (site GAAGGGCCTAG)”, 0.0404. “GAAGAGCCTTGGGTTCTAACCTGTTGCCT (site GAAGTGCCTAG)”: the “recombinant barcode read abundance (log10)” value came out at 0.0759. Consider “GAAGAGGCTTGGGTTCTAACCTGTTGCCA (site GAAGAGGCTTG)”, for which the “recombinant barcode read abundance (log10)” value worked out at 0.536. The figure for “GAAGAGGCTTGGGTTCTAACCTGTTGCCA (site TGTCTCCCTAC)” is 0.115.

For “GAAGCCGCTTGGGTTCTAACCTGTTGCCT (site GAAGACGCTAG)”, the “recombinant barcode read abundance (log10)” value is 0.0292. For the sequence “GAAGCCGCTTGGGTTCTAACCTGTTGCCT (site GAAGCCGCTAG)”, the “recombinant barcode read abundance (log10)” value is 2.26.

For “GAAGCCGCTTGGGTTCTAACCTGTTGCCT (site GAAGGCGCTAG)”, the “recombinant barcode read abundance (log10)” value was found to be 0.16. As to “GAAGCCGCTTGGGTTCTAACCTGTTGCCT (site GAAGTCGCTAG)”, the “recombinant barcode read abundance (log10)” value is 0.302.

For the sequence “GAAGGAGCTTGGGTTCTAACCTGTTGCAG (site ATGCCTCCTAA)”, the “recombinant barcode read abundance (log10)” value is 0.0306. As to “GAAGGAGCTTGGGTTCTAACCTGTTGCAG (site GAAGGAGCTCT)”, the “recombinant barcode read abundance (log10)” value was 1.51. On to “GAAGGGACTTGGGTTCTAACCTGTTGCCT (site GAAGGGACTAG)”, for which the “recombinant barcode read abundance (log10)” value worked out at 2.11.

Regarding “GAAGGGACTTGGGTTCTAACCTGTTGCCT (site GCAGGGACTAG)”, the “recombinant barcode read abundance (log10)” value came out at 0.236. To “GAAGGGACTTGGGTTCTAACCTGTTGCCT (site GGAGGGACTAG)” belongs 0.585; to “GAAGGGACTTGGGTTCTAACCTGTTGCCT (site GTAGGGACTAG)”, 1.52; to “GAAGTCGCTTGGGTTCTAACCTGTTGCCT (site GAAGACGCTAG)”, 0.187. On to “GAAGTCGCTTGGGTTCTAACCTGTTGCCT (site GAAGCCGCTAG)”, for which the “recombinant barcode read abundance (log10)” value was 0.508. The figure for “GAAGTCGCTTGGGTTCTAACCTGTTGCCT (site GAAGGCGCTAG)” is 0; for “GAAGTCGCTTGGGTTCTAACCTGTTGCCT (site GAAGTCGCTAG)” it is 1.78. “GAATATTCTTGGGTTCTAACCTGTTGCCT (site GAATATTCTAG)”: the “recombinant barcode read abundance (log10)” value turned out to be 0.739. In the case of “GAATATTCTTGGGTTCTAACCTGTTGCCT (site GACTATTCTAG)”, the “recombinant barcode read abundance (log10)” value was found to be 0.0547. With “GAATATTCTTGGGTTCTAACCTGTTGCCT (site GAGTATTCTAG)”, the “recombinant barcode read abundance (log10)” value worked out at 0.136. On to “GAATATTCTTGGGTTCTAACCTGTTGCCT (site GATTATTCTAG)”, for which the “recombinant barcode read abundance (log10)” value stood at 0.27. For the sequence “GAATGTCCTTGGGTTCTAACCTGTTGCAT (site GAATGTCCTAT)”, the “recombinant barcode read abundance (log10)” value came to 1.39. As to “GAATGTCCTTGGGTTCTAACCTGTTGCAT (site GCATGTCCTAT)”, the “recombinant barcode read abundance (log10)” value stood at 0.0491. “GACAATGCTTGGGTTCTAACCTGTTGCAT (site ACGTGGACTTA)”: the “recombinant barcode read abundance (log10)” value worked out at 0.229. For the sequence “GACAATGCTTGGGTTCTAACCTGTTGCAT (site GACAATGCTAT)”, the “recombinant barcode read abundance (log10)” value worked out at 0.105. Take “GACACAACTTGGGTTCTAACCTGTTGCCA (site CGGCTCCCTAA)”: the “recombinant barcode read abundance (log10)” value worked out at 0.208. The figure for “GACACAACTTGGGTTCTAACCTGTTGCCA (site GACACAACTTG)” is 0.018; for “GACACGCCTTGGGTTCTAACCTGTTGCCT (site GACACGCCTAA)” it is 0.301. In the case of “GACACGCCTTGGGTTCTAACCTGTTGCCT (site GACACGCCTAC)”, the “recombinant barcode read abundance (log10)” value turned out to be 0.0669. The figure for “GACACGCCTTGGGTTCTAACCTGTTGCCT (site GACACGCCTAG)” is 0.156; for “GACACGCCTTGGGTTCTAACCTGTTGCCT (site GACACGCCTAT)” it is 0.146; for “GACACGCCTTGGGTTCTAACCTGTTGCGT (site GACACGCCTAA)” it is 0.205. Regarding “GACACGCCTTGGGTTCTAACCTGTTGCGT (site GACACGCCTAC)”, the “recombinant barcode read abundance (log10)” value amounted to 0.571.

On to “GACACGCCTTGGGTTCTAACCTGTTGCGT (site GACACGCCTAG)”, for which the “recombinant barcode read abundance (log10)” value is 0.156. The figure for “GACACGCCTTGGGTTCTAACCTGTTGCGT (site GACACGCCTAT)” is 0.147; for “GACACGTCTTGGGTTCTAACCTGTTGCCT (site GACACCTCTAA)” it is 0; for “GACACGTCTTGGGTTCTAACCTGTTGCCT (site GACACGTCTAG)” it is 0.534. On to “GACAGGACTTGGGTTCTAACCTGTTGCCT (site AACACGACTAG)”, for which the “recombinant barcode read abundance (log10)” value came to 0.196. As to “GACAGGACTTGGGTTCTAACCTGTTGCCT (site GACAGGACTAG)”, the “recombinant barcode read abundance (log10)” value worked out at 1.32. For “GACATCACTTGGGTTCTAACCTGTTGCCT (site GACATCACTAG)”, the “recombinant barcode read abundance (log10)” value was found to be 0.767.

Take “GACATCACTTGGGTTCTAACCTGTTGCCT (site GACATCCCTAG)”: the “recombinant barcode read abundance (log10)” value came to 0.0352. Consider “GACATCACTTGGGTTCTAACCTGTTGCCT (site GACATCGCTAG)”, for which the “recombinant barcode read abundance (log10)” value stood at 0.192. Turning to “GACATCACTTGGGTTCTAACCTGTTGCCT (site GACATCTCTAG)”, the “recombinant barcode read abundance (log10)” value came to 0.0671. In the case of “GACATCCCTTGGGTTCTAACCTGTTGCCT (site GACATCACTAG)”, the “recombinant barcode read abundance (log10)” value was found to be 0.045. With “GACATCCCTTGGGTTCTAACCTGTTGCCT (site GACATCCCTAG)”, the “recombinant barcode read abundance (log10)” value is 1.45. With “GACATCCCTTGGGTTCTAACCTGTTGCCT (site GACATCGCTAG)”, the “recombinant barcode read abundance (log10)” value was found to be 0.0465.

With “GACATCCCTTGGGTTCTAACCTGTTGCCT (site GACATCTCTAG)”, the “recombinant barcode read abundance (log10)” value came out at 0.142. “GACATCTCTTGGGTTCTAACCTGTTGCCT (site GACATCACTAG)”: the “recombinant barcode read abundance (log10)” value is 0.105.

In the case of “GACATCTCTTGGGTTCTAACCTGTTGCCT (site GACATCCCTAG)”, the “recombinant barcode read abundance (log10)” value was 0.00568. With “GACATCTCTTGGGTTCTAACCTGTTGCCT (site GACATCGCTAG)”, the “recombinant barcode read abundance (log10)” value is 0.0954.

In the case of “GACATCTCTTGGGTTCTAACCTGTTGCCT (site GACATCTCTAG)”, the “recombinant barcode read abundance (log10)” value was 1.19. In the case of “GACCGAGCTTGGGTTCTAACCTGTTGCCT (site GACCGAGCTAG)”, the “recombinant barcode read abundance (log10)” value was 1.33. With “GACCGAGCTTGGGTTCTAACCTGTTGCCT (site GACCGCGCTAG)”, the “recombinant barcode read abundance (log10)” value was 0.0201. Consider “GACCGAGCTTGGGTTCTAACCTGTTGCCT (site GACCGGGCTAG)”, for which the “recombinant barcode read abundance (log10)” value was 0.145. In the case of “GACCGAGCTTGGGTTCTAACCTGTTGCCT (site GACCGTGCTAG)”, the “recombinant barcode read abundance (log10)” value is 0.345.

Consider “GACCGTCCTTGGGTTCTAACCTGTTGCGT (site GACCGTCCTAA)”, for which the “recombinant barcode read abundance (log10)” value came to 0.306.

For “GACCGTCCTTGGGTTCTAACCTGTTGCGT (site GACCGTCCTAC)”, the “recombinant barcode read abundance (log10)” value was found to be 2.65. With “GACCGTCCTTGGGTTCTAACCTGTTGCGT (site GACCGTCCTAG)”, the “recombinant barcode read abundance (log10)” value was 0.573. For “GACCGTCCTTGGGTTCTAACCTGTTGCGT (site GACCGTCCTAT)”, the “recombinant barcode read abundance (log10)” value turned out to be 1.14. As for “GACCTGGCTTGGGTTCTAACCTGTTGCCG (site GACCTGACTTG)”, the “recombinant barcode read abundance (log10)” value was 0.176.

On to “GACCTGGCTTGGGTTCTAACCTGTTGCCG (site GACCTGGCTCG)”, for which the “recombinant barcode read abundance (log10)” value was 0.886. The figure for “GACGCAACTTGGGTTCTAACCTGTTGCAT (site GACGCAACTAT)” is 0.0836.
